Data as given in ChEMBL document CHEMBL5370538, “Discovery of novel 6-p-tolyl-3-(3,4,5-trimethoxybenzyl)-7H-[1,2,4]triazolo[3,4-b][1,3,4]thiadiazine derivative as a potent tubulin inhibitor with promising in vivo antitumor activity” (Eur J Med Chem, 2023).

Experiments:
[1] = Cmax in Sprague-Dawley rat at 2 mg/kg,iv measured upto 24 hrs by LC-MS/MS analysis; type: ADME, organism-based; set-up: time < 24 hrs, dose 2 mg/kg, route iv; details: in vivo
HeLa [2] = experiment: Induction of apoptosis in human HeLa cells assessed as late apoptotic cells at 0.06 uM incubated for 24 hrs Annexin V-FITC/PI staining based flow cytometry analysis (Rvb= 2.13 %); type: functional
[3] = MRT (0-infinity) in Sprague-Dawley rat at 10 mg/kg,po measured upto 24 hrs by LC-MS/MS analysis; type: ADME, organism-based; details: in vivo
[4] = AUC (0-t) in Sprague-Dawley rat at 10 mg/kg,po measured upto 24 hrs by LC-MS/MS analysis; type: ADME, organism-based; set-up: dose 10 mg/kg, time < 24 hrs, route po; details: in vivo
HeLa [5] = experiment: Induction of apoptosis in human HeLa cells assessed as necrotic cells at 0.06 uM incubated for 24 hrs Annexin V-FITC/PI staining based flow cytometry analysis (Rvb= 0.12 %); type: functional
[6] = Clearance in Sprague-Dawley rat at 2 mg/kg,iv measured upto 24 hrs by LC-MS/MS analysis; type: ADME, organism-based; details: in vivo
HeLa [7] = experiment: Induction of apoptosis in human HeLa cells assessed as late apoptotic cells at 0.12 uM incubated for 24 hrs Annexin V-FITC/PI staining based flow cytometry analysis (Rvb= 2.13 %); type: functional
[8] = MRT (0-t) in Sprague-Dawley rat at 2 mg/kg,iv measured upto 24 hrs by LC-MS/MS analysis; type: ADME, organism-based; details: in vivo
HeLa [9] = experiment: Induction of cell cycle arrest in human HeLa cells assessed as accumulation of cells at S phase at 0.03 uM incubated for 24 hrs by propidium iodide staining based flow cytometry (reference value: 20.22 %); type: functional
[10] = AUC (0-infinity) in Sprague-Dawley rat at 2 mg/kg,iv measured upto 24 hrs by LC-MS/MS analysis; type: ADME, organism-based; set-up: dose 2 mg/kg, time < 24 hrs, route iv; details: in vivo
[11] = AUC (0-t) in Sprague-Dawley rat at 2 mg/kg,iv measured upto 24 hrs by LC-MS/MS analysis; type: ADME, organism-based; set-up: dose 2 mg/kg, time < 24 hrs, route iv; details: in vivo
[12] = MRT (0-infinity) in Sprague-Dawley rat at 2 mg/kg,iv measured upto 24 hrs by LC-MS/MS analysis; type: ADME, organism-based; details: in vivo
Tubulin (Homo sapiens) = Tubulin (Homo sapiens) (UniProt P68371+Q9H4B7+P0DPH7+P68366+Q13509+Q71U36+P04350+Q3ZCM7+P07437+P68363+Q9BQE3+Q6PEY2+Q13885+Q9BVA1+Q9BUF5); experiment: Inhibition of tubulin polymerization (unknown origin) at 10 uM measured for 20 mins in presence of GTP by spectrophotometry analysis relative to control; type: protein-complex assay
HUVEC [13] = experiment: Antivascular activity against human HUVEC cells assessed as inhibition of capillary tube formation incubated for 24 hrs by crystal violet staining based matrigel-transwell assay; type: functional, cell-based
A549 [14] = experiment: Antiproliferative activity against human A549 cells assessed as cell growth inhibition incubated for 48 hrs by MTT assay; type: functional, cell-based; details: A549, 48 h
HeLa [15] = experiment: Induction of apoptosis in human HeLa cells assessed as early apoptotic cells at 0.12 uM incubated for 24 hrs Annexin V-FITC/PI staining based flow cytometry analysis (Rvb= 1.85 %); type: functional
HeLa [16] = experiment: Induction of cell cycle arrest in human HeLa cells assessed as accumulation of cells at G0/G1 phase at 0.03 uM incubated for 24 hrs by propidium iodide staining based flow cytometry (reference value: 62.4 %); type: functional
HeLa [17] = experiment: Induction of apoptosis in human HeLa cells assessed as viable cells at 0.03 uM incubated for 24 hrs Annexin V-FITC/PI staining based flow cytometry analysis (Rvb= 95.9 %); type: functional; details: read-out: Activity
HeLa [18] = experiment: Induction of apoptosis in human HeLa cells assessed as viable cells at 0.06 uM incubated for 24 hrs Annexin V-FITC/PI staining based flow cytometry analysis (Rvb= 95.9 %); type: functional; details: read-out: Activity
[19] = Volume of distribution at steady state in Sprague-Dawley rat at 2 mg/kg,iv measured upto 24 hrs by LC-MS/MS analysis; type: ADME, organism-based; details: in vivo
HeLa [20] = experiment: Induction of cell cycle arrest in human HeLa cells assessed as accumulation of cells at G2/M phase at 0.06 uM incubated for 24 hrs by propidium iodide staining based flow cytometry (reference value: 17.38 %); type: functional
HeLa [21] = experiment: Induction of apoptosis in human HeLa cells assessed as late apoptotic cells at 0.03 uM incubated for 24 hrs Annexin V-FITC/PI staining based flow cytometry analysis (Rvb= 2.13 %); type: functional
[22] = Clearance in Sprague-Dawley rat at 10 mg/kg,po measured upto 24 hrs by LC-MS/MS analysis; type: ADME, organism-based; details: in vivo
[23] = AUC (0-infinity) in Sprague-Dawley rat at 10 mg/kg,po measured upto 24 hrs by LC-MS/MS analysis; type: ADME, organism-based; set-up: time < 24 hrs, dose 10 mg/kg, route po; details: in vivo
HeLa [24] = experiment: Induction of apoptosis in human HeLa cells assessed as necrotic cells at 0.12 uM incubated for 24 hrs Annexin V-FITC/PI staining based flow cytometry analysis (Rvb= 0.12 %); type: functional
[25] = Tmax in Sprague-Dawley rat at 2 mg/kg,iv measured upto 24 hrs by LC-MS/MS analysis; type: ADME, organism-based; details: in vivo
[26] = MRT (0-t) in Sprague-Dawley rat at 10 mg/kg,po measured upto 24 hrs by LC-MS/MS analysis; type: ADME, organism-based; details: in vivo
MDA-MB-231 = experiment: Antiproliferative activity against human MDA-MB-231 cells assessed as cell growth inhibition incubated for 48 hrs by MTT assay; type: functional, cell-based; details: MDA-MB-231, 48 h
HeLa [27] = experiment: Induction of apoptosis in human HeLa cells assessed as viable cells at 0.12 uM incubated for 24 hrs Annexin V-FITC/PI staining based flow cytometry analysis (Rvb= 95.9 %); type: functional; details: read-out: Activity
HeLa [28] = experiment: Induction of cell cycle arrest in human HeLa cells assessed as accumulation of cells at G0/G1 phase at 0.06 uM incubated for 24 hrs by propidium iodide staining based flow cytometry (reference value: 62.4 %); type: functional
A549 [29] = experiment: Antitumor activity against human A549 cells xenografted in Balb/c mouse assessed as tumor growth inhibition at 60 mg/kg,ip administrated for 7 days; type: functional; details: A549, 168 h, time 7 day, read-out: TGI
HUVEC [30] = experiment: Antivascular activity against human HUVEC cells assessed as inhibition of cell migration incubated for 24 hrs by wound healing assay; type: functional, cell-based
[31] = Toxicity in Balb/c mouse xenografted with human A549 cells assessed as change in body weight at 60 mg/kg,ip administrated for 7 days; type: organism-based; details: in vivo, 168 h, time 7 day
HeLa [32] = experiment: Induction of apoptosis in human HeLa cells assessed as necrotic cells at 0.03 uM incubated for 24 hrs Annexin V-FITC/PI staining based flow cytometry analysis (Rvb= 0.12 %); type: functional
[33] = Antiproliferative activity against human HEK293 cells assessed as cell growth inhibition incubated for 48 hrs by MTT assay; type: toxicity, cell-based
HT-29 = experiment: Antiproliferative activity against human HT-29 cells assessed as cell growth inhibition incubated for 48 hrs by MTT assay; type: functional, cell-based; details: HT-29, 48 h
[34] = Oral bioavailability in Sprague-Dawley rat at 10 mg/kg measured upto 24 hrs by LC-MS/MS analysis; type: ADME, organism-based; details: in vivo
HeLa [35] = experiment: Induction of apoptosis in human HeLa cells assessed as early apoptotic cells at 0.06 uM incubated for 24 hrs Annexin V-FITC/PI staining based flow cytometry analysis (Rvb= 1.85 %); type: functional

Cmax [1]: 670 ng/mL
MRT inf [3]: 7.9 h
AUC(0-t) at 24 h [4]: 122 ng·h/mL
CL [6]: 118 mL/min/kg
MRT last at 24 h [8]: 1.2 h
AUC(0-inf) [10]: 310 ng·h/mL
AUC(0-t) at 24 h [11]: 307 ng·h/mL
MRT [12]: 1.8 h
inhibition (Tubulin (Homo sapiens)): 43%
IC50 (A549 [14]): 960 nM
Vdss [19]: 91.5 L/kg
CL/F [22]: 2180 mL/min/kg
AUC(0-inf) [23]: 124 ng·h/mL
Tmax [25]: 6 min
MRT last at 24 h [26]: 6.4 h
IC50 (MDA-MB-231): 1890 nM
IC50 (HT-29): 570 nM
bioavailability [34]: 11.6%
SMILES: COc1cc(Cc2nnc3n2N=C(c2ccc(C)cc2)CS3)cc(OC)c1OC
Activity (HeLa [2]): 7.44%
Activity (HeLa [5]): 0.46%
Activity (HeLa [7]): 9.21%
Activity (HeLa [9]): 19.86%
Activity (HUVEC [13]): Dose-Dependent Effect
Activity (HeLa [15]): 24%
Activity (HeLa [16]): 52.76%
viability at 0.03 µM (HeLa [17]): 76%
viability at 0.06 µM (HeLa [18]): 74.7%
Activity (HeLa [20]): 69.71%
Activity (HeLa [21]): 4.9%
Activity (HeLa [24]): 1.59%
viability at 0.12 µM (HeLa [27]): 65.2%
Activity (HeLa [28]): 1.94%
inhibition in vivo at 60 mg/kg (A549 [29]): 47.3%
Activity (HUVEC [30]): Dose-Dependent Effect
Activity [31]: Non-Toxic
Activity (HeLa [32]): 0.57%
IC50 at 48 h [33]: > 100000 nM
Activity (HeLa [35]): 17.4%
